Test results: ChEMBL document CHEMBL2401728, “An unexpected Dimroth rearrangement leading to annelated thieno[3,2-d][1,2,3]triazolo[1,5-a]pyrimidines with potent antitumor activity” (Eur J Med Chem, 2013)

What was measured:
Format in all cases: functional
CCRF-CEM = experiment: Cytotoxicity against human CCRF-CEM cells assessed as cellular growth at 100 uM after 48 hrs by SRB assay relative to control
HL-60(TB) = experiment: Cytotoxicity against human HL-60(TB) cells after 48 hrs by SRB assay; conditions: HL-60, 48 h
MDA-MB-435 [1] = experiment: Cytotoxicity against human MDA-MB-435 cells after 48 hrs by SRB assay; conditions: MDA-MB-435, 48 h
MDA-MB-231 [2] = experiment: Cytotoxicity against human MDA-MB-231 cells assessed as cellular growth at 0.1 uM after 48 hrs by SRB assay relative to control
SNB-75 = experiment: Cytotoxicity against human SNB75 cells assessed as cellular growth at 0.01 uM after 48 hrs by SRB assay relative to control
Hs-578T = experiment: Cytotoxicity against human Hs578T cells assessed as cellular growth at 0.1 uM after 48 hrs by SRB assay relative to control
[3] = Cytotoxicity against human EKVX cells assessed as cellular growth at 100 uM after 48 hrs by SRB assay relative to control
OVCAR-3 = experiment: Cytotoxicity against human OVCAR3 cells assessed as cellular growth at 0.1 uM after 48 hrs by SRB assay relative to control
MDA-MB-231 [4] = experiment: Cytotoxicity against human MDA-MB-231 cells assessed as cellular growth at 100 uM after 48 hrs by SRB assay relative to control
M14 [5] = experiment: Cytotoxicity against human M14 cells assessed as cellular growth at 0.01 uM after 48 hrs by SRB assay relative to control
UO-31 [6] = experiment: Cytotoxicity against human UO31 cells assessed as cellular growth at 0.01 uM after 48 hrs by SRB assay relative to control
COLO 205 [7] = experiment: Cytotoxicity against human COLO205 cells assessed as cellular growth at 0.1 uM after 48 hrs by SRB assay relative to control
TK-10 = experiment: Cytotoxicity against human TK10 cells after 48 hrs by SRB assay; conditions: TK-10, 48 h
SR [8] = experiment: Cytotoxicity against human SR cells assessed as cellular growth at 0.01 uM after 48 hrs by SRB assay relative to control
OVCAR-8 [9] = experiment: Cytotoxicity against human OVCAR8 cells assessed as cellular growth at 1 uM after 48 hrs by SRB assay relative to control
T47D = experiment: Cytotoxicity against human T47D cells assessed as cellular growth at 1 uM after 48 hrs by SRB assay relative to control
OVCAR-8 [10] = experiment: Cytotoxicity against human OVCAR8 cells assessed as cellular growth at 0.01 uM after 48 hrs by SRB assay relative to control
786-0 = experiment: Cytotoxicity against human 786-0 cells after 48 hrs by SRB assay; conditions: 786-0, 48 h
MDA-MB-435 [11] = experiment: Cytotoxicity against human MDA-MB-435 cells assessed as cellular growth at 0.1 uM after 48 hrs by SRB assay relative to control
SN12C = experiment: Cytotoxicity against human SN12C cells assessed as cellular growth at 100 uM after 48 hrs by SRB assay relative to control
UACC-62 = experiment: Cytotoxicity against human UACC62 cells assessed as cellular growth at 100 uM after 48 hrs by SRB assay relative to control
NCI-H522 = experiment: Cytotoxicity against human NCI-H522 cells assessed as cellular growth at 1 uM after 48 hrs by SRB assay relative to control
SF-539 = experiment: Cytotoxicity against human SF539 cells assessed as cellular growth at 1 uM after 48 hrs by SRB assay relative to control
A498 = experiment: Cytotoxicity against human A498 cells assessed as cellular growth at 1 uM after 48 hrs by SRB assay relative to control
COLO 205 [12] = experiment: Cytotoxicity against human COLO205 cells assessed as cellular growth at 1 uM after 48 hrs by SRB assay relative to control
M14 [13] = experiment: Cytotoxicity against human M14 cells assessed as cellular growth at 10 uM after 48 hrs by SRB assay relative to control
SR [14] = experiment: Cytotoxicity against human SR cells assessed as cellular growth at 1 uM after 48 hrs by SRB assay relative to control
KM12 = experiment: Cytotoxicity against human KM12 cells assessed as cellular growth at 1 uM after 48 hrs by SRB assay relative to control
IGROV-1 [15] = experiment: Cytotoxicity against human IGROV1 cells assessed as cellular growth at 0.1 uM after 48 hrs by SRB assay relative to control
UO-31 [16] = experiment: Cytotoxicity against human UO31 cells assessed as cellular growth at 1 uM after 48 hrs by SRB assay relative to control
IGROV-1 [17] = experiment: Cytotoxicity against human IGROV1 cells at 10 uM after 48 hrs by SRB assay
MDA-MB-435 [18] = experiment: Cytotoxicity against human MDA-MB-435 cells assessed as cellular growth at 1 uM after 48 hrs by SRB assay relative to control
U-251 = experiment: Cytotoxicity against human U251 cells assessed as cellular growth at 1 uM after 48 hrs by SRB assay relative to control
NCI-H322M = experiment: Cytotoxicity against human NCI-H322M cells assessed as cellular growth at 1 uM after 48 hrs by SRB assay relative to control
A549 = experiment: Cytotoxicity against human A549 cells assessed as cellular growth at 100 uM after 48 hrs by SRB assay relative to control
OVCAR-4 = experiment: Cytotoxicity against human OVCAR4 cells assessed as cellular growth at 0.01 uM after 48 hrs by SRB assay relative to control
BT-549 = experiment: Cytotoxicity against human BT549 cells after 48 hrs by SRB assay; conditions: BT-549, 48 h
HOP-62 = experiment: Cytotoxicity against human HOP62 cells assessed as cellular growth at 0.1 uM after 48 hrs by SRB assay relative to control
[19] = read-out: LC50 (the source's name)
[20] = read-out: pLC50 (the source's name) (converted)

O=C(CCCn1c2c(sc3ccccc32)c(=O)n2nnc(-c3ccccc3)c12)NCCc1c[nH]cn1
Activity (CCRF-CEM): -100% | GI50 (HL-60(TB); read-out: GI50): 0.0724 µM | CC50 (HL-60(TB); [19]): 22.7 µM | TGI (HL-60(TB); read-out: TGI): 3.21 µM | GI50 (HL-60(TB); read-out: pGI50 (converted)): 0.0724 µM | CC50 (HL-60(TB); [20]): 22.9 µM | TGI (HL-60(TB); read-out: pTGI (converted)): 3.24 µM | GI50 (MDA-MB-435 [1]; read-out: GI50): 0.345 µM | CC50 (MDA-MB-435 [1]; [19]): 4.7 µM | TGI (MDA-MB-435 [1]; read-out: TGI): 1.87 µM | GI50 (MDA-MB-435 [1]; read-out: pGI50 (converted)): 0.347 µM | CC50 (MDA-MB-435 [1]; [20]): 4.68 µM | TGI (MDA-MB-435 [1]; read-out: pTGI (converted)): 1.86 µM | Activity (MDA-MB-231 [2]): 109% | Activity (SNB-75): 103% | Activity (Hs-578T): 91% | Activity [3]: -24% | Activity (OVCAR-3): 107% | Activity (MDA-MB-231 [4]): -100% | Activity (M14 [5]): 108% | Activity (UO-31 [6]): 104% | Activity (COLO 205 [7]): 60% | GI50 (TK-10; read-out: GI50): 2.17 µM | CC50 (TK-10; [19]): 6.42 µM | TGI (TK-10; read-out: TGI): 3.73 µM | GI50 (TK-10; read-out: pGI50 (converted)): 2.19 µM | CC50 (TK-10; [20]): 6.46 µM | TGI (TK-10; read-out: pTGI (converted)): 3.72 µM | Activity (SR [8]): 108% | Activity (OVCAR-8 [9]): 32% | Activity (T47D): 57% | Activity (OVCAR-8 [10]): 42% | GI50 (786-0; read-out: GI50): 1.05 µM | CC50 (786-0; [19]): 5.34 µM | TGI (786-0; read-out: TGI): 2.37 µM | GI50 (786-0; read-out: pGI50 (converted)): 1.05 µM | CC50 (786-0; [20]): 5.37 µM | TGI (786-0; read-out: pTGI (converted)): 2.34 µM | Activity (MDA-MB-435 [11]): 69% | Activity (SN12C): -100% | Activity (UACC-62): -100% | Activity (NCI-H522): 42% | Activity (SF-539): -6% | Activity (A498): 55% | Activity (COLO 205 [12]): 41% | Activity (M14 [13]): -80.56% | Activity (SR [14]): -18% | Activity (KM12): 39% | Activity (IGROV-1 [15]): 50% | Activity (UO-31 [16]): 69% | Activity (IGROV-1 [17]): -89% | Activity (MDA-MB-435 [18]): 34% | Activity (U-251): 36% | Activity (NCI-H322M): 90% | Activity (A549): -2% | Activity (OVCAR-4): 110% | GI50 (BT-549; read-out: GI50): 3.32 µM | LC50 (concentration killing 50% of cells) (BT-549; read-out: LC50): 51.5 µM | TGI (BT-549; read-out: TGI): 11.4 µM | GI50 (BT-549; read-out: pGI50 (converted)): 3.31 µM | LC50 (concentration killing 50% of cells) (BT-549; read-out: pLC50 (converted)): 51.3 µM | TGI (BT-549; read-out: pTGI (converted)): 11.5 µM | Activity (HOP-62): 80%

CN1CCN(CCCn2c3c(sc4ncccc43)c(=O)n3nnc(-c4ccccc4)c23)CC1
Activity (CCRF-CEM): -49% | GI50 (HL-60(TB); read-out: GI50): 1.86 µM | CC50 (HL-60(TB); [19]): 9.05 µM | TGI (HL-60(TB); read-out: TGI): 4.1 µM | GI50 (HL-60(TB); read-out: pGI50 (converted)): 1.86 µM | CC50 (HL-60(TB); [20]): 9.12 µM | TGI (HL-60(TB); read-out: pTGI (converted)): 4.07 µM | GI50 (MDA-MB-435 [1]; read-out: GI50): 1.87 µM | CC50 (MDA-MB-435 [1]; [19]): 6.68 µM | TGI (MDA-MB-435 [1]; read-out: TGI): 3.54 µM | GI50 (MDA-MB-435 [1]; read-out: pGI50 (converted)): 1.86 µM | CC50 (MDA-MB-435 [1]; [20]): 6.76 µM | TGI (MDA-MB-435 [1]; read-out: pTGI (converted)): 3.55 µM | Activity (MDA-MB-231 [2]): 100% | Activity (SNB-75): 76% | Activity (Hs-578T): 93% | Activity [3]: -80% | Activity (OVCAR-3): 95% | Activity (MDA-MB-231 [4]): -42% | Activity (M14 [5]): 97% | Activity (UO-31 [6]): 66% | Activity (COLO 205 [7]): 89% | GI50 (TK-10; read-out: GI50): 2.15 µM | TGI (TK-10; read-out: TGI): 3.75 µM | GI50 (TK-10; read-out: pGI50 (converted)): 2.14 µM | TGI (TK-10; read-out: pTGI (converted)): 3.72 µM | Activity (SR [8]): 100% | Activity (OVCAR-8 [9]): 89% | Activity (T47D): 103% | Activity (OVCAR-8 [10]): 97% | GI50 (786-0; read-out: GI50): 1.87 µM | CC50 (786-0; [19]): 6.56 µM | TGI (786-0; read-out: TGI): 3.5 µM | GI50 (786-0; read-out: pGI50 (converted)): 1.86 µM | CC50 (786-0; [20]): 6.61 µM | TGI (786-0; read-out: pTGI (converted)): 3.47 µM | Activity (MDA-MB-435 [11]): 99% | Activity (SN12C): -47% | Activity (UACC-62): -74% | Activity (NCI-H522): 99% | Activity (SF-539): 90% | Activity (A498): 76% | Activity (COLO 205 [12]): 86% | Activity (M14 [13]): -75% | Activity (SR [14]): 104% | Activity (KM12): 91% | Activity (IGROV-1 [15]): 96% | Activity (UO-31 [16]): 51% | Activity (IGROV-1 [17]): -51% | Activity (MDA-MB-435 [18]): 99% | Activity (U-251): 98% | Activity (NCI-H322M): 90% | Activity (A549): -42% | Activity (OVCAR-4): 100% | GI50 (BT-549; read-out: GI50): 14.7 µM | LC50 (concentration killing 50% of cells) (BT-549; read-out: LC50): 63.9 µM | TGI (BT-549; read-out: TGI): 30.7 µM | GI50 (BT-549; read-out: pGI50 (converted)): 14.8 µM | LC50 (concentration killing 50% of cells) (BT-549; read-out: pLC50 (converted)): 64.6 µM | TGI (BT-549; read-out: pTGI (converted)): 30.9 µM | Activity (HOP-62): 84%
